Experimental data as given in US20030027745A1, “Diagnostic and prognostic method for evaluating ocular inflammation and oxidative stress and the treatment of the same” (priority 2001, published 2003).

Columns and labels:
drusen = assay: Number of drusen in an ARMD patient following NAC treatment; assay type: in vivo; details: FIG. 2
[1] = test system: reduced blood glutathione (GSH); assay: Blood glutathione (GSH) levels in an ARMD patient before and after NAC treatment; assay type: in vivo; details: ARMD patient taking NAC compared to the same patient before taking NAC, FIG. 1
Text: FIG. 1 is a chart showing the decreased reduced blood glutathione (GSH) levels in an Age-Related Macular Degeneration patient, prior to and following treatment of the patient with N-acetylcysteine (NAC).
It is known that GSH levels decrease in cells that are exposed to oxidative stress and inflammation. Decreases in GSH lead to even further increased oxidative stresses. […] Since it shown that patients with ARMD, as opposed to the control subjects, have decreased levels of GSH and that the levels of GSH increased following NAC treatment, alterations in GSH, GSSG and other factors when analyzed alone or in combination, can be used to help identify ARMD and other patients who have increased ocular oxidative stress and/or inflammation. For example, these responses may occur in the eye of ARMD or other patients as the disease progresses from its dry to wet forms or from less serious to more serious wet forms. Consequently, measurements of these factors could provide a way of diagnosing and following the progression of ARMD or other conditions in patients, especially when the measurements are made sequentially and compared repeatedly in the same individual.
A second aspect of the invention is that the effectiveness of treatments that alter oxidative stress can be assessed by the measurement, especially sequential measurement, of blood factors. […]

CC(=O)N[C@@H](CS)C(=O)O [NAC, N-acetylcysteine]
drusen (number of drusens, a retinal abnormality) (drusen): decreased
GSH levels [1]: increased
